Consider 2 compounds from patent publication US20120101147A1, “INHIBITION OF HDAC2 TO PROMOTE MEMORY” (The General Hospital Corporation d/b/a Massachusetts …, priority 2008, published 2012).

In one series the test system is mice. In words: Context-dependent fear conditioning memory test. In kind it is in vivo, mouse. Conditions: C57/BL6 WT mice; 45 mg/kg every day for 10 days; foot shock 0.8 mA. Here is the method: Fear conditioning tests Context-dependent fear conditioning. Training consists of a 3 min exposure of mice to the conditioning box (context) followed by a foot shock (2 sec, 0.5/0.8/1.0 mA, constant current). The memory test was performed 24 hr later by re-exposing the mice for 3 min into the conditioning context. Freezing, defined as a lack of movement except for heart beat and respiration associated with a crouching posture, was recorded every 10 sec by two trained observers (one was unaware of the experimental conditions) during 3 min (a total of 18 sampling intervals). The number of observations indicating freezing obtained as a mean from both observers was expressed as a percentage of the total number of observations.
Chemical administration Suberoylanilide hydroxamic acid (SAHA) was synthesized as described previously in WO 93/07148 PTC/US92/08454. Sodium butyrate was purchased from Sigma (cat.B5887). SAHA and WT-161 were dissolved in DMSO as stock solutions and diluted in saline just before injection. Sodium butyrate was prepared in saline. Mice received intraperitoneal injection daily with either SAHA or saline for 10 days or 21 days.
C57/BL6 WT mice were injected with vehicle or BRD-6929 for 10 days. On day 11, mice were trained in contextual fear conditioning paradigm (Training consisted of a 3 min exposure of mice to the conditioning box (context, TSE) followed by a foot shock (2 sec, 0.8 mA, constant current). One hour after training, mice were injected with BRD-6929 or vehicle. On day 12, mice were returned to the training box and the freezing behavior were monitored and recorded.

The test system of series [1] is H4K12 acetylation in primary striatal cells. In words: Western blot of H4K12 acetylation in primary striatal cells. Conditions: 1 and 10 uM; relative to DMSO. In kind it is cell-based, mouse. The source says: A. Western blots of primary striatal cells isolated from mouse brain that have been treated with HDAC inhibitors. Two sets of data with 3 independent samples/set. B. Histograms represent the quantification of westerns shown in panel A.
Two sets of data with 3 independent samples/set are presented. Histograms representing the quantification of westerns are also shown. Relative to DMSO controls, BRD-6929 has a significant effect on the acetylation levels of histone locus H4K12. BRD-6929 treatment results in a 5-10 fold increase at 1 and 10 uM. BRD-6929 is an HDAC 1,2 selective compound, and has 200× selectivity for HDAC1,2 vs. HDAC3. […] In this case the data was compared to controls: SAHA and BRD-3696 (CI-994). An HDAC1,2 selective compound is as effective at increasing acetylation as an HDAC1,2,3 inhibitor and a pan inhibitor (i.e. SAHA). Inhibiting HDAC1,2 is sufficient to effect increased acetylation at this histone locus.

The test system of series [2] is tetra-acetylated H2B. In words: Western blot of tetra-acetylated H2B in primary striatal cells. In kind it is cell-based, mouse. Conditions: relative to DMSO controls. On the procedure:
(§1) Four compounds were tested including CI-994 (BRD-3696) and SAHA. […] BRD-6929 and BRD-5298 treatment results in a 2-5 fold increase in both marks at 1 and 10 uM.

Series [3] in a line: Pharmacokinetics in plasma and brain after single i.p. dose. Type of series: in vivo. Conditions: single 45 mg/kg i.p.; C-57 mice. Here is the method:
FIG. 17 is the concentration-time curve of BRD-6929 in plasma and brain following single 45 mg/kg i.p. dose in mice.
FIG. 17 represents a summary of the pharmacokinetic data after a single dose of 45 mg/kg BRD-6929 administered systemically via intraperitoneal injection. The concentration time curves for BRD-6929 in the plasma and brain of C-57 mice from 5 min to 24 h are shown.

Another series relates to HDAC1,2 vs. HDAC3. In words: Selectivity for HDAC1,2 vs. HDAC3. In kind it is biochemical. From the text:
All of the BRD numbered compounds are derived from the ortho-anilide class of compounds.
Two sets of data with 3 independent samples/set are presented. Histograms representing the quantification of westerns are also shown.

A further series deals with H4K12 acetylation. In words: Immunofluorescence: H4K12 acetylation in primary cultures (striatum). In kind it is cell-based, mouse. Conditions: 10 uM, 6 h. Here is the method: (§2) 1) Compounds were pin transferred from 384-well plates (Abgene) using a 185 nl pin tool using a no touch bottom protocol.
(§3) 1) Media was aspirated using a plate washer (Tecan) protocol that leaves ˜5 ul residual volume and without touching the bottom of plates); or alternatively, wells were gently aspirated to remove media with 12-channel aspirator wand.
(§4) 2) A multichannel pipet or use liquid handling system (e.g. Combi, standard tubing; slow speed) was used to add 75 ul formaldehyde (4% in PBS) and wells incubated 10 min at room temperature.
(§5) 3) Formaldehyde was aspirated and cells rinsed 3 times with 100 ul PBS;
(§6) 4) PBS was aspirated and 100 ul blocking/permeablization buffer (0.1% Triton-X100, 2% BSA, in PBS) added and wells incubate 1 hour at room temperature.
(§7) 5) Blocking buffer was aspirated and 50 ul primary antibody diluted 1:500 in blocking buffer was added and wells incubated overnight at 4 degrees.
(§8) 1) Primary antibody was aspirated and wells rinsed 3 times with 100 ul blocking buffer
(§9) 2) 50 ul of secondary antibody diluted 1:500 and with Hoeschst (1:1000 from 10 mg/mL (16 mM) stock) added and wells incubated 1.5 hours at room temperature covered in foil to prevent photobleaching.
(§10) 3) Wells were rinsed 3 times with 100 ul PBS, and a 100 uls of PBS added and the plates, sealed
(§11) 4) Plates were then read on Acumen/IX Micro

In a further series the test system is H2BK5. In words: Western blot of cortex after acute treatment: H2BK5 acetylation. Type of series: in vivo, mice. Conditions: cortex after 1 hour. Here is the method: (§12) The experimental protocol for acute treatment with BRD-6929 and the corresponding effects on histone acetylation in brain specific regions of adult male C57BL/6J mice is shown in FIG. 18. Crude Protein Lysis Protocol for western blot analysis of specific brain sections.
(§13) a. On ice, thaw frozen tissue and immediately homogenize carefully in 250 uL of ice-cold Suspension Buffer.
(§14) b. As soon as possible, add an equal volume of 2×SDS gel-loading buffer, pipetting up and down to mix.
(§15) 2. Place the sample at 95° C. for 5 min.
(§16) 3. Shear viscous chromosomal DNA by smoothly passaging through 23-25 gauge hypodermic needle (2-3×) or by sonicating briefly (Al used the needle method and it worked fine). Avoid foaming/bubbles.
(§17) 4. Centrifuge the sample at 10,000 g for 10 min at room temperature, transferring supernatant to fresh tube.

The subject of series [4] is primary neuronal cultures. In words: Immunofluorescence: overall cell number in primary neuronal cultures. Type of series: cell-based, mouse. Conditions: 1 and 10 uM, 6 h. Here is the method: as §2, §3, §4, §5, §6, §7, §8, §9, §10, §11
Series [5] concerns tetra-acetylated H2B. In words: Western blot of cortex after acute treatment: tetra-acetylated H2B. Type of series: in vivo, mice. Here is the method: as §12, §13, §14, §15, §16, §17
In a further series the test system is tetra-acetylated H4. In words: Western blot of tetra-acetylated H4 in primary striatal cells. Type of series: cell-based, mouse. Conditions: relative to DMSO controls. Here is the method:
as §1

Series [6] deals with tetra-acetylated H2B. In words: Western blot of whole brain after chronic administration: tetra-acetylated H2B. In kind it is in vivo, mice. Conditions: every day for 10 days.
For the next series, the system named is H2B acetylation. In words: Immunofluorescence: H2B acetylation in primary neuronal cell cultures. Type of series: cell-based, mouse. Conditions: 1 and 10 uM, 6 h. On the procedure:
as §2, §3, §4, §5, §6, §7, §8, §9, §10, §11

A further series concerns the target T1, HDAC8 (Homo sapiens, UniProt Q9BY41).
T1 sequence (Q9BY41 1-377): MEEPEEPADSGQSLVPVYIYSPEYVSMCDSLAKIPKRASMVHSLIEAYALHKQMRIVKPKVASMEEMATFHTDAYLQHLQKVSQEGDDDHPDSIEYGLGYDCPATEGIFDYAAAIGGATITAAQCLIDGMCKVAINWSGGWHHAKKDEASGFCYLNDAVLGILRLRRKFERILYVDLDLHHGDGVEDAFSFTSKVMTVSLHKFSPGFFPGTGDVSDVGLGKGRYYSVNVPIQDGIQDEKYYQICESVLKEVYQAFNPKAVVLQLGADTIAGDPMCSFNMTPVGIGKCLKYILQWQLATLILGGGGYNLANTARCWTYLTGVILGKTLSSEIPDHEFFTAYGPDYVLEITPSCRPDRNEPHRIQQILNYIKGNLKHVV
In words: In vitro enzymatic inhibition assay against HDAC isoforms. Type of series: biochemical. On the procedure:
(§18) The enzymatic inhibitory activity of multiple HDAC inhibitors was assayed against several of the known HDAC isoforms and is shown in FIG. 8. SAHA was included as a reference mixed class I-class II inhibitor. […] All of the BRD numbered compounds are derived from the ortho-anilide class of compounds. Not all compounds from this class are expected to bind the class II HDACs.

The test system of the next series is Class II HDAC enzymes. Described as above. Type of series: biochemical. Here is the method:
as §18

Series [7] deals with H4K12 acetylation in HEK293 cells. In words: Western blot of H4K12 acetylation in whole HEK293 cells. Type of series: cell-based. Conditions: 10 uM, 6 hour. On the procedure:
Series of compounds incubated with whole HEK293 cells at 10 uM for a 6 hour time period. Western blot showing increased acetylation levels over DMSO controls using anti-acetyl H4K12 antibodies and horseradish peroxidase conjugated secondary antibody along with a luminol-based substrate.
Relative to the DMSO control, multiple selectivity profiles are effective in increasing H4K12 acetylation levels. […] BRD-4097 is the negative control.
Standard western blotting methods were used to measure the effects of HDAC inhibitors on histone acetylation marks in […]. Series of compounds were incubated with whole HEK293 cells at 10 uM for a 6 hour time period. […] Quantification of the raw western data (FIG. 10) established that relative to the DMSO control, multiple selectivity profiles are effective in increasing H4K12 acetylation levels, and that HDAC 1,2 and HDAC 1,2,3 selective inhibitors have robust HDAC activity in whole cells on a specific histone loci (H4K12).

The structures appear in SMILES notation.

As for `CC(=O)Nc1ccc(C(=O)Nc2cc(-c3cccs3)ccc2N)cc1` [BRD-6929, 4-acetamido-N-(2-amino-5-(thiophen-2-yl)phenyl)benzamide], in the series with mice, the “memory in contextual fear conditioning paradigm (% time freezing)” value is given as “improved”. For the same compound, the “increase in acetylation of histone locus H4K12” value in [1] is listed as 5-10 fold. Moreover, the “tetra-acetylated H2B” value in the series on tetra-acetylated H2B [2] was “trend toward increasing”. Besides, in series [3], the blood-brain barrier penetration result was “crosses the blood-brain barrier”, the “brain AUC” value turned out to be 3.9 µM and the “brain Cmax” value was determined as 830 nM. Also, in the series with HDAC1,2 vs. HDAC3, the “selectivity for HDAC1,2 vs. HDAC3” value worked out at 200 ×. Also, the H4K12 acetylation entry in the series on H4K12 acetylation is recorded as “increase”. For the same compound, the “increase in acetylation levels for H2BK5” value with H2BK5 was 1.5-2 fold. For the same compound, in [4] (primary cultures (cortex and striatum)), the overall cell number result is given as “does not cause an increase or decrease”. In addition, the overall cell number entry in series [4] (primary neuronal cell cultures) is listed as “do not cause an increase or decrease”. The “increase in H2B (tetra) histone acetylation in cortex” value with tetra-acetylated H2B [5] (acute treatment, normalized to histone H3) is 1.5-2 fold. In the series on tetra-acetylated H2B [5] (single systemic dose, adult male C57BL/6J mice), the “levels of tetra-acetylated H2B in the cortex” value is “significant increase”. Besides, the “tetra-acetylated H4” value with tetra-acetylated H4 is “significantly increased”. Besides, the “tetra-acetylated H2B relative to the vehicle control” value in the series on tetra-acetylated H2B [6] is recorded as “increase”. Also, in the series with H2B acetylation (primary cultures (striatum)), the “increase in H2B tetra-acetylation” value was 2-3 fold. The H2B acetylation entry with H2B acetylation (primary neuronal cell cultures) was “significant increase”. Moreover, the “inhibition of HDAC8” value against HDAC8 was “does not inhibit”. The “inhibition of Class II HDAC enzymes” value with Class II HDAC enzymes is on record as “does not inhibit”.

`Nc1ccc(-c2cccs2)cc1NC(=O)c1ccc(/C=C/C(=O)NCCc2ccccn2)cc1` [BRD-9853, (E)-N-(2-amino-5-(thiophen-2-yl)phenyl)-4-(3-oxo-3-(2-(pyridin-2-yl)ethylamino)prop-1-enyl)benzamide]: in series [7], the “H4K12 acetylation levels relative to DMSO control” value is “minimal activity”.
